Values of other authors in patent US9084801B2, “Use of an omega-3 lipid-based emulsion following ischemic injury to provide protection and recovery in human organs” (THE TRUSTEES OF COLUMBIA UNIVERSITY IN THE CITY OF NEW YORK, priority 2005, dated 2015).

Columns and labels:
[1] = tested on: adult Sprague-Dawley rats, global ischemia via four vessel occlusion; settings: intravenous, given before and/or after neurologic insult
[2] = tested on: adult Sprague-Dawley rats, kainate-induced seizures; settings: intravenous, given before and/or after neurologic insult

## CC/C=C\C/C=C\C/C=C\CCCCCCCC(=O)O [α-linolenic acid]
[1]
  protection in global ischemia: protective
[2]
  protection in kainate-induced seizures: protective
